In US20150246136A1, “NOVEL BINDER-DRUG CONJUGATES (ADCs) AND USE OF SAME” (priority 2011, published 2015):
Square brackets hold non-standard residues; d marks the D form. Peptide text beside a SMILES is read from it. Dolaproine = CO[C@@H]([C@@H]1CCCN1)[C@@H](C)C(=O)O; Dil = CC[C@H](C)[C@H](NC)[C@@H](CC(=O)O)OC; NMeV = CN[C@H](C(=O)O)C(C)C

Experiments:
[1] = test system: various carcinoma cell lines; conditions: cited from earlier work
[2] = Pharmacokinetics in the HT29 tumor model, non-transfected tumors; format: in vivo; conditions: after i.v. 16 mg/kg Example 60
Procedure: C-2.3 Pharmacokinetics in the HT29 Tumor Model with Mesothelin-Transfected HT29 Cells and Non-Transfected Cells
After i.v. administration of 16 mg/kg from Example 60, the plasma and tumor concentrations of Example 60 were measured along with potentially occurring metabolites such as those of Example 119, for example. […] In the animals with non-transfected tumors, the exposure in the plasma in Example 119 was identical to the exposure in the plasma of animals with transfected tumors. […] This is indicative of a definite targeting effect in the tumor in the presence of the antigen.
Analysis for Quantitation of the Compound from Example 119 […]
In workup of a tumor, it was mixed with a four-fold amount of methanol. […] After agitating again, the tumor sample was ready for measurement.
Finally, the measurement of both matrix samples was performed on the HPLC coupled atmospheric pressure ionization/tandem mass spectrometer by means of turbo ion spray interface (TISP) on an API4000 instrument from the company SCIEX. The following m/z transitions were measured: […]
For the calibration, plasma samples with concentrations of 0.5-2000 μg/L were mixed. The limit of quantitation (LOQ) was 2 μg/L. The linear range was from 2 to 1000 μg/L. […]

## CC[C@H](C)[C@@H]([C@@H](CC(=O)N1CCC[C@H]1[C@H](OC)[C@@H](C)C(=O)N[C@@H](Cc1ccccc1)C(=O)OC)OC)N(C)C(=O)[C@@H](NC(=O)[C@@H](NC)C(C)C)C(C)C [MMAF-OMe, Monomethylauristatin F-methylester] (H-[NMeV]V[Dil][Dolaproine]F-OMe)
[1]; in comparison with MMAF, various carcinoma cell lines
  in vitro cytotoxicity: greater by several orders of magnitude

## CC[C@H](C)[C@@H]([C@@H](CC(=O)N1CCC[C@H]1[C@H](OC)[C@@H](C)C(=O)N[C@@H](Cc1ccccc1)C(=O)O)OC)N(C)C(=O)[C@@H](NC(=O)[C@@H](NC)C(C)C)C(C)C [MMAF, Monomethylauristatin F] (H-[NMeV]V[Dil][Dolaproine]F-OH)
[1]; in comparison with MMAE
  antiproliferative effect: only a moderate antiproliferative effect

## CC[C@H](C)[C@@H]([C@@H](CC(=O)N1CCC[C@H]1[C@H](OC)[C@@H](C)C(=O)N[C@@]1(C(=O)N2CCCCO2)C[C@@H]1c1ccccc1)OC)N(C)C(=O)[C@@H](NC(=O)[C@H](C(C)C)N(C)CCCC(=O)NNC(=O)CCCCCN1C(=O)CC(SC[C@H](N)C(=O)O)C1=O)C(C)C (stereo partly drawn) [Example 119, N-(4-{2-[6-(3-{[(2R)-2-amino-2-carboxyethyl]sulfanyl}-2,5-dioxopyrrolidin-1-yl)hexanoyl]hydrazino}-4-oxobutyl)-N-methyl-L-valyl-N-[(3R,4S,5S)-3-methoxy-1-{(2S)-2-[(1R,2R)-1-methoxy-2-methyl-3-{[(1S,2R)-1-(1,2-oxazinan-2-ylcarbonyl)-2-phenylcyclopropyl]amino}-3-oxopropyl]pyrrolidin-1-yl}-5-methyl-1-oxoheptan-4-yl]-N-methyl-L-valinamide]
[2]
  AUC in the tumor versus transfected animals: approx. eight times lower
  exposure in the plasma versus animals with transfected tumors: identical
